From patent US20100286173A1 (priority 2008, published 2010) come the findings set out here.

Structures are written as SMILES.

One data set can be described thus: Measurement of logP values by HPLC on reversed phase columns (EEC directive 79/831 Annex V.A8). Format: physicochemical. The conditions noted are these: pH 2.7, 0.1% formic acid in water / acetonitrile gradient 10% to 95%.
`CC(C)CC(=O)Nc1cccc(CON=C(c2ccc(C(F)(F)F)c(Cl)c2)c2nnnn2C)n1` [Example 71] displayed a logp of 4.29.
The compound `Cn1nnnc1C(=NOCc1csc(NC(=O)C2CC2)n1)c1ccc(F)c(Oc2ccccc2)c1` [Example 148] came in with a Log p of 3.48.
`CCCCCC(=O)Nc1cccc(CON=C(c2ccc(C)c(C(F)(F)F)c2)c2nnnn2C)n1` [Example 89] yielded a logp of 4.56.
The same measure, in the same setting: the figure for `CCCCCC(=O)Nc1cccc(CON=C(c2cc(C)ccc2F)c2nnnn2C)n1` [Example 29] is 3.83; for `CCCCCOC(=O)Nc1cccc(CON=C(c2ccc(OC(F)(F)F)cc2C)c2nnnn2C)n1` (single isomer, unassigned) [Example 96] it is 4.89.
The compound `Cc1ccc(F)c(C(=NOCc2cccc(N)n2)c2nnnn2C)c1` [Example 136] displayed a Log p of 1.4.
`CC(C)CC(=O)Nc1cccc(CON=C(c2ccc(Cl)c(C(F)(F)F)c2)c2nnnn2C)n1` [Example 70] showed a logp of 4.26.
Compound `Cn1nnnc1C(=NOCc1cccc(N)n1)c1ccc(C(F)(F)F)cc1F` (single isomer, unassigned) [Example 141] displayed a Log p of 1.82.
In turn, `CCCCCOC(=O)Nc1cccc(CON=C(c2ccc(OC(F)(F)F)cc2C)c2nnnn2C)n1` (single isomer, unassigned) [Example 97] had a logp of 5.11.
For `Cc1cc(F)cc(C(=NOCc2cccc(NC(=O)CC(C)C)n2)c2nnnn2C)c1` (single isomer, unassigned) [Example 158], the Log p turned out to be 3.76.
`Cc1ccc(C(=NOCc2cccc(N)n2)c2nnnn2C)cc1F` [Example 137] gave a Log p of 1.52.
In turn, `Cn1nnnc1C(=NOCc1cccc(N)n1)c1cccc(C(F)(F)F)c1F` (single isomer, unassigned) [Example 144] came in with a Log p of 1.65.
`CCCCCOC(=O)Nc1cccc(CON=C(c2ccc(F)c(C(F)(F)F)c2)c2nnnn2C)n1` [Example 82]: the logp amounted to 4.86.
The same measure, in the same setting: the figure for `CCCCCOC(=O)Nc1cccc(CON=C(c2ccc(C)cc2Cl)c2nnnn2C)n1` [Example 92] is 4.54.
The same measure, in the same setting: in the case of `CCCCCC(=O)Nc1cccc(CON=C(c2cccc(F)c2C)c2nnnn2C)n1` [Example 112] it was 3.96; in that of `CCCCCOC(=O)Nc1cccc(CON=C(c2ccc(C(F)(F)F)cc2F)c2nnnn2C)n1` (single isomer, unassigned) [Example 24], 4.73.
For the compound `Cn1nnnc1C(=NOCc1cccc(N)n1)c1cc(C(F)(F)F)ccc1Cl` [Example 133], the Log p came to 1.72.
Regarding `Cc1cc(C(=NOCc2cccc(NC(=O)CCOc3ccccc3)n2)c2nnnn2C)ccc1F` [Example 57], the logp is 3.87.
Still for that read-out and setting: the figure for `CCCCCOC(=O)Nc1cccc(CON=C(c2cc(C)ccc2Cl)c2nnnn2C)n1` [Example 83] is 4.54; for `COc1ccc(CC(=O)Nc2cccc(CON=C(c3ccc(F)c(C)c3)c3nnnn3C)n2)cc1` [Example 59] it is 3.68.
For the compound `CCCCCC(=O)Nc1cccc(CON=C(c2ccc(C(F)(F)F)c(Cl)c2)c2nnnn2C)n1` [Example 107], the logp turned out to be 4.7.
With `CCCCCOC(=O)Nc1cccc(CON=C(c2cccc(C(F)(F)F)c2Cl)c2nnnn2C)n1` [Example 87], the logp came out at 4.81.
For the compound `CC(C)CC(=O)Nc1cccc(CON=C(c2cc(C(F)(F)F)ccc2Cl)c2nnnn2C)n1` [Example 63], the logp is reported as 3.96.
`Cc1cc(C(=NOCc2csc(C#CCCCc3ccccc3)n2)c2nnnn2C)ccc1F` [Example 155] displayed a Log p of 5.32.
Compound `Cn1nnnc1C(=NOCc1cccc(N)n1)c1ccc(C(F)(F)F)cc1F` (single isomer, unassigned) [Example 142] registered a Log p of 1.72.
Compound `CCCCCC(=O)Nc1cccc(CON=C(c2cc(C)ccc2Cl)c2nnnn2C)n1` (single isomer, unassigned) [Example 117] displayed a logp of 4.19.
On the same count and under the same terms, the figure for `C=CCOC(=O)Nc1cccc(CON=C(c2ccc(F)c(C)c2)c2nnnn2C)n1` [Example 56] is 3.63; for `Cc1ccc(C(F)(F)F)cc1C(=NOCc1csc(N)n1)c1nnnn1C` [Example 130] it is 1.92; for `CCCCCOC(=O)Nc1cccc(CON=C(c2cc(C)ccc2Cl)c2nnnn2C)n1` [Example 84] it is 4.73.
Compound `CCCCCC(=O)Nc1cccc(CON=C(c2ccc(F)c(C(F)(F)F)c2)c2nnnn2C)n1` [Example 104] registered a logp of 4.36.
Consider `CCCCCC(=O)Nc1cccc(CON=C(c2ccc(C)cc2F)c2nnnn2C)n1` [Example 115], for which the logp was found to be 3.92.
Compound `CCCCCOC(=O)Nc1cccc(CON=C(c2cc(C(F)(F)F)ccc2C)c2nnnn2C)n1` (single isomer, unassigned) [Example 110] displayed a logp of 4.84.
Still for that read-out and setting: in the case of `CCCCCC(=O)Nc1cccc(CON=C(c2ccc(C)c(F)c2)c2nnnn2C)n1` (single isomer, unassigned) [Example 114] it was 4.16.
For `Cc1cc(F)cc(C(=NOCc2cccc(NC(=O)CC(C)C)n2)c2nnnn2C)c1` (single isomer, unassigned) [Example 157], the Log p stood at 3.71.
With `CCCCCC(=O)Nc1cccc(CON=C(c2ccc(C)cc2Cl)c2nnnn2C)n1` (single isomer, unassigned) [Example 113], the logp is given as 4.16.
Same read-out and setting: in the case of `CC(C)C(=O)Nc1cccc(CON=C(c2ccc(C(F)(F)F)cc2F)c2nnnn2C)n1` (single isomer, unassigned) [Example 28] it was 3.48; in that of `CCCCCOC(=O)Nc1cccc(CON=C(c2ccc(Cl)c(C(F)(F)F)c2)c2nnnn2C)n1` [Example 88], 5.14.
Compound `Cc1ccc(Cl)c(C(=NOCc2cccc(NC(=O)CC(C)C)n2)c2nnnn2C)c1` [Example 35] showed a logp of 3.73.
Same read-out and setting: the figure for `Cc1ccc(F)c(C(=NOCc2csc(N)n2)c2nnnn2C)c1` [Example 132] is 1.65.
Turning to `CCCCC#Cc1nc(CON=C(c2ccc(F)c(C)c2)c2nnnn2C)cs1` [Example 152], the Log p was determined as 4.78.
In the case of `CC(C)CC(=O)Nc1cccc(CON=C(c2cc(F)cc(C(F)(F)F)c2)c2nnnn2C)n1` [Example 65], the logp was 3.89.
Compound `Cc1ccc(F)c(C(=NOCc2cccc(NC(=O)CC(C)C)n2)c2nnnn2C)c1` [Example 48] registered a logp of 3.53.
Same read-out and setting: the figure for `Cc1ccc(F)c(C(=NOCc2cccc(NC(=O)CC(C)C)n2)c2nnnn2C)c1` [Example 75] is 3.42; for `CCCCCC(=O)Nc1cccc(CON=C(c2ccc(C)c(F)c2)c2nnnn2C)n1` (single isomer, unassigned) [Example 102] it is 4.21.
As for `Cn1nnnc1C(=NOCc1cccc(N)n1)c1ccc(C(F)(F)F)c(Cl)c1` [Example 134], the Log p came out at 1.9.
`CCCCCC(=O)Nc1cccc(CON=C(c2cccc(C)c2F)c2nnnn2C)n1` [Example 103]: the logp is listed as 3.96.
Compound `Cc1ccc(C(=NOCc2cccc(NC(=O)CC(C)C)n2)c2nnnn2C)cc1F` [Example 32] displayed a logp of 3.71.
`C=CCCOC(=O)Nc1cccc(CON=C(c2ccc(F)c(C)c2)c2nnnn2C)n1` [Example 55]: the logp is 3.92.

Still in this data set, the particulars now being: reversed phase HPLC column, pH 2.7, 0.1% formic acid in water / acetonitrile gradient 10% to 95%.
Regarding `CCCCCOC(=O)Nc1nc(CON=C(c2ccc(C)c(C(F)(F)F)c2)c2nnnn2C)cs1` [Example 22, pentyl(4-{[({(1-methyl-1H-tetrazol-5-yl)[4-methyl-3-(trifluoromethyl)phenyl]methylidene}amino)oxy]methyl}-1,3-thiazol-2-yl)carbamate], the chromatographic logP was determined as 4.73.
Compound `CCCCCC(=O)Nc1cccc(CON=C(c2cccc(C(F)(F)F)c2F)c2nnnn2C)n1` [Example 27, N-(6-{[({[2-fluoro-3-(trifluoromethyl)phenyl](1-methyl-1H-tetrazol-5-yl)methylidene}amino)oxy]methyl}pyridin-2-yl)hexanamide] returned a chromatographic logP of 4.16.

Still in this data set, the particulars now being: reversed phase HPLC column, pH 2.7, 0.1% formic acid in water / acetonitrile gradient 10% to 95%, read-out: Log p.
In the case of `Cn1nnnc1C(=NOCc1cccc(N)n1)c1cccc(C(F)(F)F)c1F` [Example 143, 6-{[({[2-fluoro-3-(trifluoromethyl)phenyl](1-methyl-1H-tetrazol-5-yl)methylidene}amino)oxy]methyl}pyridin-2-amine], the chromatographic logP turned out to be 1.75.
The same measure, in the same setting: the figure for `Cc1cc(C(=NOCc2csc(NCC3CC3)n2)c2nnnn2C)ccc1F` [Example 154, N-(cyclopropylmethyl)-4-[({[(4-fluoro-3-methylphenyl)(1-methyl-1H-tetrazol-5-yl)methylidene]amino}oxy)methyl]-1,3-thiazol-2-amine] is 2.71.
